Patent US12594277B2, “Macrocyclic ULK1/2 inhibitors” (SALK INSTITUTE FOR BIOLOGICAL STUDIES, priority 2020, dated 2026)
Values belong to the compound of their own block, whether it stands above or below them.

Legend:
[1] = target: T1, NanoLuc-ULK1 fusion in HEK293T cells (Homo sapiens, UniProt O75385); test: ULK1 NanoBRET assay; type: cell-based; conditions: HEK293T transfected with NanoLuc-ULK1 Fusion Vector, Tracer K-5, 2 h incubation
T1 construct: host or cells: HEK293T
T1 sequence (O75385 1-1050): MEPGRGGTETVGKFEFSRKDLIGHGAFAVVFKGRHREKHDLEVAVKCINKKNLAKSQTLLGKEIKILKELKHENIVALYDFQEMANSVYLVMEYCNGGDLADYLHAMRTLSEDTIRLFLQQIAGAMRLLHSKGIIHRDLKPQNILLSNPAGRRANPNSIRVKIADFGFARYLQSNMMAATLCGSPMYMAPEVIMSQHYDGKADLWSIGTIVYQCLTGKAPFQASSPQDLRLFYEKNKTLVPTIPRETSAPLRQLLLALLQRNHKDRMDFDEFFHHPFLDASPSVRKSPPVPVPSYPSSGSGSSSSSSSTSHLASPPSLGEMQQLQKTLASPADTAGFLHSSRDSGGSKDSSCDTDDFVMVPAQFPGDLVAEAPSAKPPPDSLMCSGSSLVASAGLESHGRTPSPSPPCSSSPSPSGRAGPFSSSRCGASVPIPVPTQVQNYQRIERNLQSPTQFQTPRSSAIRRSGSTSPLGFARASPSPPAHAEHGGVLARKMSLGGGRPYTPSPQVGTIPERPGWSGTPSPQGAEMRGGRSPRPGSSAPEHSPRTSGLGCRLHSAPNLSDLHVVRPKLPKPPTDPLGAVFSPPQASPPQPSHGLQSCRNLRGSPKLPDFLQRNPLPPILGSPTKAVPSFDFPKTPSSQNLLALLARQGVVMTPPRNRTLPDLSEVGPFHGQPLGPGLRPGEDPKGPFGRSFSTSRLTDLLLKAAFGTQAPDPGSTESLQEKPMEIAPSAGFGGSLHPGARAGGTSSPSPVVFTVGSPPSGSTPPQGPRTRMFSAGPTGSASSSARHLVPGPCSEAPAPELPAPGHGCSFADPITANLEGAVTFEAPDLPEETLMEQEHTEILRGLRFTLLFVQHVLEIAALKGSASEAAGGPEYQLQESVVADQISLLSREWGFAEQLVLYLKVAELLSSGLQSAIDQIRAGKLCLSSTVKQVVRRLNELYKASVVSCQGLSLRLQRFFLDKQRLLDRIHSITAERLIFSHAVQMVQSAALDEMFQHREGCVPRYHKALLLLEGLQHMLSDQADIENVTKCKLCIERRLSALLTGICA
Protocol: IC50s were also measured by ULK1 NanoBRET assay according to the following protocol: Human embryonic kidney cells (HEK293T) were transfected with NanoLuc®-ULK1 Fusion Vector (Promega #NV2211) using jetPRIME transfection reagent (Polyplus Transfection #114-15). Following 24 h, cells were trypsinized and resuspended in Opti-MEM® I (1×), Reduced Serum Medium (Gibco, #11058-021). Approximately, 7,000 cells per well (in 34 μL total volume) were replated into non-binding surface 384 well plates. Complete NanoBRET 20× Tracer K-5 reagent was prepared according to the manufacturer's directions and 2 μL were added to each well of the 384 plate (assay plate). The assay plate was mixed on an orbital shaker for 15 seconds at 700 rpm. Compounds were serially diluted at 200× final concentration in […], then diluted to 10× final concentration in assay media (Opti-MEM® I, Reduced Serum Medium). Next, 4 μL 10× test compounds were added to each well of the assay plate, followed by mixing at 700 rpm for 15 seconds. The assay plate was incubated for 2 h in a 37 C incubator with […] and then equilibrated to RT for 15 min. The 3× Complete Substrate plus Inhibitor Solution was prepared according to the manufacturer's directions with a concentration of Extracellular NanoLuc® Inhibitor of 60 μM to be used at a working concentration of 20 μM. The 3× Complete Substrate plus Inhibitor Solution was mixed and 20 μL per well was added to the assay plate and incubated at RT for 2-3 min. Donor emission wavelength (450 nm) and acceptor emission wavelength (610 nm) were measured using an assay compatible luminometer (see manufacturer's specifications).

[2] = target: T2, recombinant human ULK1 protein (1-649) (Homo sapiens, UniProt O75385); test: ULK1 inhibition assay (ADP-Glo); type: biochemical; conditions: 2 ug/mL ULK1, 80 ug/mL myelin basic protein, 25 uM ATP, assessed after one hour
T2 construct: recombinant human ULK1 protein (1-649, SignalChem #U01-11G); purchased SignalChem U01-11G
T2 sequence (O75385 1-649): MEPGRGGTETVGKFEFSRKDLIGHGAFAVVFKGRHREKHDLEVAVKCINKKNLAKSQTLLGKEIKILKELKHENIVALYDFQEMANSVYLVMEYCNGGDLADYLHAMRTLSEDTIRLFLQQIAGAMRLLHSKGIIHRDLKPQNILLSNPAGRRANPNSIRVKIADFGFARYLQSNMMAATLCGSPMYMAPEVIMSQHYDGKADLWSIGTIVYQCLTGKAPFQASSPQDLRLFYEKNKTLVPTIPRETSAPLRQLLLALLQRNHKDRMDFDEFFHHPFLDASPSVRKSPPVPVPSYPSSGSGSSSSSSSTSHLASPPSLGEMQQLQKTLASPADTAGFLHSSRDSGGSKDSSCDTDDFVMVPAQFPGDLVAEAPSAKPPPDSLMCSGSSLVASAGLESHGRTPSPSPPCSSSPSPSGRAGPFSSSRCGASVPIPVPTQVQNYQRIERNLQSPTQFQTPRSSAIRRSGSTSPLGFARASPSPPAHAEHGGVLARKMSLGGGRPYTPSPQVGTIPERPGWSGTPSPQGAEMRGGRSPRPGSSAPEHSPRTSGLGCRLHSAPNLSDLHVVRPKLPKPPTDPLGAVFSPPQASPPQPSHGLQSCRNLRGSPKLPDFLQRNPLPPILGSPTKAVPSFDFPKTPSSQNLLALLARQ
Protocol: IC50s measured by ADP-Glo assay are represented nM, with A representing IC50<20 nM, B representing IC50>20 nM. NT indicates the compound was not tested. ULK1 inhibition assays were performed in a 5 uL reaction volume containing 2 ug/mL recombinant human ULK1 protein (1-649, SignalChem #U01-11G) and 80 ug/mL myelin basic protein (MBP, Sigma-Aldrich #M1891) in the presence of 25 uM ATP (Sigma-Aldrich A7699). ULK 1 inhibition was assessed after one hour. Compounds were tested in triplicate in a 16-dose IC50 mode with 3-fold serial dilution and a starting dose of 30 uM. Staurosporine, a non-selective protein kinase inhibitor, was used in the assay as a positive control. Three separate experiments were carried out.

Compound: CNC(=O)c1ccc2cc1Nc1nc(ncc1C(F)(F)F)Nc1ccc(c(OC)c1)OCCCCCCO2 [Compound 17, 5^3-Methoxy-N-methyl-3^5-(trifluoromethyl)-6,13-dioxa-2,4-diaza-3(4,2)-pyrimidina-1(1,3),5 (1,4)-dibenzenacyclotridecaphane-16-carboxamide]
IC50 [1]: > 1000 nM | IC50 [2]: > 20 nM

Compound: CNC(=O)c1cc2ccc1Nc1nc(ncc1C(F)(F)F)Nc1ccc(OC)c(c1)OC/C=C/CCCO2 [Compound 18, (E)-1^4-methoxy-N-methyl-3^5-(trifluoromethyl)-6,13-dioxa-2,4-diaza-3(2,4)-pyrimidina-1(1,3),5(1,4)-dibenzenacyclotridecaphan-10-ene-5^2-carboxamide]
IC50 [1]: > 1000 nM | IC50 [2]: < 20 nM

Compound: CNC(=O)c1cc2ccc1Nc1nc(ncc1C(F)(F)F)Nc1ccc(OC)c(c1)OC/C=C\CCCO2 [Compound 19, (Z)-1^4-methoxy-N-methyl-3^5-(trifluoromethyl)-6,13-dioxa-2,4-diaza-3(2,4)-pyrimidina-1(1,3),5(1,4)-dibenzenacyclotridecaphan-10-ene-5^2-carboxamide]
IC50 [1]: < 1000 nM | IC50 [2]: < 20 nM

Compound: CNC(=O)c1cc2ccc1Nc1nc(ncc1C(F)(F)F)Nc1ccc(OC)c(c1)OCCCCCCO2 [Compound 20, 1^4-Methoxy-N-methyl-3^5-(trifluoromethyl)-6,13-dioxa-2,4-diaza-3(2,4)-pyrimidina-1(1,3),5 (1,4)-dibenzenacyclotridecaphane-52-carboxamide]
IC50 [1]: > 1000 nM | IC50 [2]: < 20 nM

Compound: CNC(=O)c1ccc2cc1Nc1nc(ncc1C(F)(F)F)Nc1ccc(OC)c(c1)OCCCCCO2 [Compound 23, 1^4-methoxy-N-methyl-3^5-(trifluoromethyl)-6,12-dioxa-2,4-diaza-3(2,4)-pyrimidina-1,5(1,3)-dibenzenacyclododecaphane-5^6-carboxamide]
IC50 [1]: > 1000 nM | IC50 [2]: > 20 nM

Compound: CNC(=O)c1ccc2cc1OCCCCCOc1ccc(cc1OC)Nc1ncc(C(F)(F)F)c(n1)N2 [Compound 25, 5^3-Methoxy-N-methyl-3^5-(trifluoromethyl)-6,12-dioxa-2,4-diaza-3(4,2)-pyrimidina-1(1,3), 5(1,4)-dibenzenacyclododecaphane-1^6-carboxamide]
IC50 [1]: > 1000 nM | IC50 [2]: > 20 nM

Second part, the compound after the results:

IC50 [1]: > 1000 nM | IC50 [2]: > 20 nM
Compound: CNC(=O)c1ccc2cc1Nc1nc(ncc1C(F)(F)F)Nc1ccc(OC)c(c1)OC/C=C\CCO2 [Compound 21, (E)-1^4-methoxy-N-methyl-3^5-(trifluoromethyl)-6,12-dioxa-2,4-diaza-3(2,4)-pyrimidina-1,5(1,3)-dibenzenacyclododecaphan-9-ene-5^6-carboxamide]

IC50 [1]: > 1000 nM | IC50 [2]: > 20 nM
Compound: CNC(=O)c1ccc2cc1Nc1nc(ncc1C(F)(F)F)Nc1ccc(OC)c(c1)OC/C=C/CCO2 [Compound 22, (Z)-1^4-methoxy-N-methyl-3^5-(trifluoromethyl)-6,12-dioxa-2,4-diaza-3(2,4)-pyrimidina-1,5(1,3)-dibenzenacyclododecaphan-9-ene-5^6-carboxamide]

IC50 [1]: > 1000 nM | IC50 [2]: > 20 nM
Compound: CNC(=O)c1ccc2cc1Nc1nc(ncc1C(F)(F)F)Nc1ccc(c(OC)c1)OC/C=C/CCO2 [Compound 24, (E/Z)-5^3-Methoxy-N-methyl-3^5-(trifluoromethyl)-6,12-dioxa-2,4-diaza-3(4,2)-pyrimidina-1(1,3),5(1,4)-dibenzenacyclododecaphan-8-ene-1^6-carboxamide]
